The source of these data is the Kinase Knowledgebase extract (Sharma et al. 2016).

SMILES strings stand for the structures.

The target in the test is MAPK14 (UniProt Q16539). Description: Inhibition of MAPK14 Kinase Activity.
Chain of MAPK14 (Q16539 whole entry, looked up): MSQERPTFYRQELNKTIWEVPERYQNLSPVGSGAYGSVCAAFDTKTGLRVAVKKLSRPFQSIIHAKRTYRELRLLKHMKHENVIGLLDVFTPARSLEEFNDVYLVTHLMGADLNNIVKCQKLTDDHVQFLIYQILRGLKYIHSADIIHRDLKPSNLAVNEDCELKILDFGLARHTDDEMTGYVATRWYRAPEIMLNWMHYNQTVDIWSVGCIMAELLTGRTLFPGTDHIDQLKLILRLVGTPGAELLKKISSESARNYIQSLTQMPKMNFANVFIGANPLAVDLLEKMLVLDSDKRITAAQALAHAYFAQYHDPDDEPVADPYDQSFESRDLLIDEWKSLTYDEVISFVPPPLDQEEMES
The IC50 is the concentration needed to halve the response being measured. Read a low IC50 as inhibition by little substance. As to `CCCSc1nccc(-c2c(-c3ccc(F)cc3)ncn2[C@@H](CO)c2ccccc2)n1`, the IC50 is less than 50 µM.
The result for `CCCSc1nccc(-c2c(-c3ccc(F)cc3)ncn2[C@H](C)CO)n1` reads less than 50 µM.
To `COc1nccc(-c2c(-c3ccc(F)cc3)ncn2[C@H](CO)Cc2ccccc2)n1` belongs less than 50 µM; to `CC[C@H](CO)n1cnc(-c2ccc(F)cc2)c1-c1ccnc(OC)n1`, less than 50 µM; to `COc1nccc(-c2c(-c3ccc(F)cc3)ncn2C(CO)CO)n1`, less than 50 µM.
To `C[C@@H](CO)n1cnc(-c2ccc(F)cc2)c1-c1ccnc(Nc2ccccc2)n1` belongs less than 50 µM; to `CNc1nccc(-c2c(-c3ccc(F)cc3)ncn2[C@H](CO)c2ccccc2)n1`, less than 50 µM.
For `COc1nccc(-c2c(-c3ccc(F)cc3)ncn2C(C)COc2ccccc2)n1` (stereo unspecified), the IC50 was less than 50 µM.
The result for `CCCSc1nccc(-c2c(-c3ccc(F)cc3)ncn2C(C)CN(C)C)n1` (stereo unspecified) reads less than 50 µM; that for `CNc1nccc(-c2c(-c3ccc(F)cc3)ncn2[C@@H](CO)c2ccccc2)n1`, less than 50 µM; that for `CC[C@@H](CO)n1cnc(-c2ccc(F)cc2)c1-c1ccnc(NC)n1`, less than 50 µM.
To `CC[C@H](CO)n1cnc(-c2ccc(F)cc2)c1-c1ccnc(NC)n1` belongs less than 50 µM; to `COc1nccc(-c2c(-c3ccc(F)cc3)ncn2[C@@H](CO)Cc2ccccc2)n1`, less than 50 µM; to `COc1nccc(-c2c(-c3ccc(F)cc3)ncn2[C@@H](CO)c2ccccc2)n1`, less than 50 µM.
To `CCCSc1nccc(-c2c(-c3ccc(F)cc3)ncn2[C@H](CO)c2ccccc2)n1` belongs less than 50 µM; to `COc1nccc(-c2c(-c3ccc(F)cc3)ncn2C(C)CN(C)C)n1` (stereo unspecified), less than 50 µM; to `CNc1nccc(-c2c(-c3ccc(F)cc3)ncn2C(C)CO)n1` (stereo unspecified), less than 50 µM.
Compound `CCCSc1nccc(-c2c(-c3ccc(F)cc3)ncn2[C@H](CC)CO)n1` displayed a 50% inhibitory concentration (IC50) of less than 50 µM.
The result for `CCCSc1nccc(-c2c(-c3ccc(F)cc3)ncn2[C@@H](CC)CO)n1` reads less than 50 µM.
The result for `CCCSc1nccc(-c2c(-c3ccc(F)cc3)ncn2[C@@H](C)CO)n1` reads less than 50 µM; that for `CC[C@@H](CO)n1cnc(-c2ccc(F)cc2)c1-c1ccnc(OC)n1`, less than 50 µM; that for `CCCSc1nccc(-c2c(-c3ccc(F)cc3)ncn2C(C)CC(=O)OC)n1` (stereo unspecified), less than 50 µM.
`COc1nccc(-c2c(-c3ccc(F)cc3)ncn2[C@H](CO)c2ccccc2)n1` had a concentration for half-maximal inhibition (IC50) of less than 50 µM.
To `C[C@@H](CO)n1cnc(-c2ccc(F)cc2)c1-c1ccncn1` belongs less than 50 µM.
To `CCCSc1nccc(-c2c(-c3ccc(F)cc3)ncn2C(CO)CO)n1` belongs less than 50 µM.
On to `COc1nccc(-c2c(-c3ccc(F)cc3)ncn2C(C)CO)n1` (stereo unspecified), for which the IC50 was less than 50 µM.
